# Data published in US20190116791A1, “USE OF SAFENERS WITH PPO INHIBITOR HERBICIDES” (priority 2016, published 2019).
# Where “and” joins values, the source holds several entries; their conditions need not be identical. Equal values may be shown once.
# Tests used:
# [1] = tested on: wheat specie “Yellowstone”; test: Percent wheat injury, visual rating 0-100%, greenhouse, post-emergence spray; conditions: for Percent wheat injury, YELLOWSTONE (1) 3 DAT / Percent wheat injury, YELLOWSTONE (1) 7 DAT / Percent wheat injury, YELLOWSTONE (1) 14 DAT: Table 7 Test 1; for Percent wheat injury, YELLOWSTONE (1) 3 DAT / Percent wheat injury, YELLOWSTONE (1) 7 DAT / Percent wheat injury, YELLOWSTONE (1) 14 DAT / Percent wheat injury, YELLOWSTONE (2) 3 DAT / Percent wheat injury, YELLOWSTONE (2) 7 DAT / Percent wheat injury, YELLOWSTONE (2) 14 DAT: tank-mix; for Percent wheat injury, YELLOWSTONE (2) 3 DAT / Percent wheat injury, YELLOWSTONE (2) 7 DAT / Percent wheat injury, YELLOWSTONE (2) 14 DAT: Table 7 Test 2; for Percent wheat injury 3 DAT / Percent wheat injury 7 DAT / Percent wheat injury 14 DAT / Injury: Yellowstone; for Injury / Percent injury on wheat, Yellowstone 3 DAT / Percent injury on wheat, Yellowstone 7 DAT / Percent injury on wheat, Yellowstone 14 DAT: Table 4; for Injury: time not stated
# wheat variety “Jagger” = test: as above; conditions: for Percent wheat injury, JAGGER 3 DAT / Percent wheat injury, JAGGER 7 DAT / Percent wheat injury, JAGGER 14 DAT: Table 7 Test 1, tank-mix; for Injury / Percent injury on wheat, Jagger 3 DAT / Percent injury on wheat, Jagger 7 DAT / Percent injury on wheat, Jagger 14 DAT: Table 4; for Injury: Jagger, time not stated
# Morningglory = test: Percent weed control, 0 to 100% rating system; type: in vivo; conditions: Table 6
# Protocol: (§1) Percent weed control was determined by a method similar to the 0 to 100% rating system as described above and reproduced below for easy reference. The same weed control rating system also can be found such as in “Research Methods in Weed Science,” 2nd ed., B. Truelove, Ed.; Southern Weed Science Society; Auburn University, Auburn, Ala., 1977.
# Velvetleaf = test: Percent weed control, 0 to 100% rating system; type: in vivo; conditions: Table 6
# Protocol: as §1
# [2] = fluthiacet-methyl 5.6 g ai/ha, 3 DAT
# [3] = fluthiacet-methyl 11.2 g ai/ha, 3 DAT
# [4] = Table 2, carfentrazone-ethyl 25 g ai/ha
# [5] = Table 3, carfentrazone-ethyl 50 g ai/ha
# [6] = carfentrazone-ethyl at 50 g, safened treatment as tank-mix or premix
compound,measurement,setting,value
"COC(=O)CSc1cc(/N=c2\sc(=O)n3n2CCCC3)c(F)cc1Cl [F-M, fluthiacet-methyl]","Percent wheat injury, YELLOWSTONE (1) 3 DAT",[1]; [2],12%
same,"Percent wheat injury, YELLOWSTONE (1) 7 DAT",[1]; fluthiacet-methyl 5.6 g ai/ha,12%
same,"Percent wheat injury, YELLOWSTONE (1) 14 DAT",[1]; fluthiacet-methyl 5.6 g ai/ha,12%
same,"Percent wheat injury, YELLOWSTONE (1) 3 DAT",[1]; [3],36%
same,"Percent wheat injury, YELLOWSTONE (1) 7 DAT",[1]; fluthiacet-methyl 11.2 g ai/ha,34%
same,"Percent wheat injury, YELLOWSTONE (1) 14 DAT",[1]; fluthiacet-methyl 11.2 g ai/ha,34%
same,"Percent wheat injury, YELLOWSTONE (2) 3 DAT",[1]; [2],16%
same,"Percent wheat injury, YELLOWSTONE (2) 7 DAT",[1]; fluthiacet-methyl 5.6 g ai/ha,11%
same,"Percent wheat injury, YELLOWSTONE (2) 14 DAT",[1]; fluthiacet-methyl 5.6 g ai/ha,12%
same,"Percent wheat injury, YELLOWSTONE (2) 3 DAT",[1]; [3],40%
same,"Percent wheat injury, YELLOWSTONE (2) 7 DAT",[1]; fluthiacet-methyl 11.2 g ai/ha,36%
same,"Percent wheat injury, YELLOWSTONE (2) 14 DAT",[1]; fluthiacet-methyl 11.2 g ai/ha,25%
same,"Percent wheat injury, JAGGER 3 DAT",wheat variety “Jagger”; fluthiacet-methyl 5.6 g ai/ha,6%
same,"Percent wheat injury, JAGGER 7 DAT",wheat variety “Jagger”; fluthiacet-methyl 5.6 g ai/ha,8%
same,"Percent wheat injury, JAGGER 14 DAT",wheat variety “Jagger”; fluthiacet-methyl 5.6 g ai/ha,10%
same,"Percent wheat injury, JAGGER 3 DAT",wheat variety “Jagger”; fluthiacet-methyl 11.2 g ai/ha,35%
same,"Percent wheat injury, JAGGER 7 DAT",wheat variety “Jagger”; fluthiacet-methyl 11.2 g ai/ha,35%
same,"Percent wheat injury, JAGGER 14 DAT",wheat variety “Jagger”; fluthiacet-methyl 11.2 g ai/ha,19%
O=C1OC(=O)c2cccc3cccc1c23 [naphthalic anhydride],wheat injury in the presence of safener(s),"[1]; text on Tables 2 and 3, safener applied with carfentrazone-ethyl, regardless of rate (25 or 50 g), 3 DAT",greater than 25%
"CCOC(=O)C(Cl)Cc1cc(-n2nc(C)n(C(F)F)c2=O)c(F)cc1Cl (centres unmarked) [Carfentrazone-ethyl, carfentrazone-ethyl]","Percent weed control, Morningglory 3 DAT",Morningglory; carfentrazone-ethyl 25 g ai/ha,90 (A) %
same,"Percent weed control, Morningglory 7 DAT",Morningglory; carfentrazone-ethyl 25 g ai/ha,100 (A) %
same,"Percent weed control, Morningglory 3 DAT",Morningglory; carfentrazone-ethyl 50 g ai/ha,90 (A) %
same,"Percent weed control, Morningglory 7 DAT",Morningglory; carfentrazone-ethyl 50 g ai/ha,100 (A) %
same,"Percent weed control, Velvetleaf 3 DAT",Velvetleaf; carfentrazone-ethyl 25 g ai/ha,90 (A) %
same,"Percent weed control, Velvetleaf 7 DAT",Velvetleaf; carfentrazone-ethyl 25 g ai/ha,100%
same,"Percent weed control, Velvetleaf 3 DAT",Velvetleaf; carfentrazone-ethyl 50 g ai/ha,90 (A) %
same,"Percent weed control, Velvetleaf 7 DAT",Velvetleaf; carfentrazone-ethyl 50 g ai/ha,100%
same,Percent wheat injury 3 DAT,"[1]; Table 2, carfentrazone-ethyl 25 g ai/ha, 3 DAT",34% and 34 (A) %
same,Percent wheat injury 3 DAT,"[1]; Table 2, carfentrazone-ethyl 25 g ai/ha, 3 DAT, listed as carfentrazone-ethyl",34%
same,Percent wheat injury 7 DAT,[1]; [4],28 (A) %
same,Percent wheat injury 14 DAT,[1]; [4],15 (A) %
same,Percent wheat injury 3 DAT,"[1]; Table 3, carfentrazone-ethyl 50 g ai/ha, 3 DAT",43% and 43 (A) %
same,Percent wheat injury 7 DAT,[1]; [5],36 (A) %
same,Percent wheat injury 14 DAT,[1]; [5],20 (A) %
same,Injury,[1]; carfentrazone-ethyl at 25 g,> 35%
same,Injury,[1]; [6],> 40%
same,"Percent injury on wheat, Yellowstone 3 DAT","[1]; carfentrazone-ethyl 25 g ai/ha, 3 DAT",38%
same,"Percent injury on wheat, Yellowstone 7 DAT",[1]; carfentrazone-ethyl 25 g ai/ha,34%
same,"Percent injury on wheat, Yellowstone 14 DAT",[1]; carfentrazone-ethyl 25 g ai/ha,24%
same,"Percent injury on wheat, Yellowstone 3 DAT","[1]; carfentrazone-ethyl 50 g ai/ha, 3 DAT",44%
same,"Percent injury on wheat, Yellowstone 7 DAT",[1]; carfentrazone-ethyl 50 g ai/ha,39%
same,"Percent injury on wheat, Yellowstone 14 DAT",[1]; carfentrazone-ethyl 50 g ai/ha,28%
same,Injury,wheat variety “Jagger”; carfentrazone-ethyl at 25 g,> 35%
same,Injury,wheat variety “Jagger”; [6],> 40%
same,"Percent injury on wheat, Jagger 3 DAT",wheat variety “Jagger”; carfentrazone-ethyl 25 g ai/ha,36%
same,"Percent injury on wheat, Jagger 7 DAT",wheat variety “Jagger”; carfentrazone-ethyl 25 g ai/ha,34%
same,"Percent injury on wheat, Jagger 14 DAT",wheat variety “Jagger”; carfentrazone-ethyl 25 g ai/ha,25%
same,"Percent injury on wheat, Jagger 3 DAT",wheat variety “Jagger”; carfentrazone-ethyl 50 g ai/ha,43%
same,"Percent injury on wheat, Jagger 7 DAT",wheat variety “Jagger”; carfentrazone-ethyl 50 g ai/ha,38%
same,"Percent injury on wheat, Jagger 14 DAT",wheat variety “Jagger”; carfentrazone-ethyl 50 g ai/ha,30%
